# Experimental data from the supplement of paper PMC10307832.
# Columns and labels:
# Experiment in all cases: relative viability (nuclei count vs DMSO), 5 days (fraction); higher = more cells survive
# [1] = compound: O=C(O)c1ccc2c(c1)nc(Nc1cccc(Cl)c1)c1ccncc12 [Silmitasertib] + Cc1nc(NC(=O)N2CCC[C@H]2C(N)=O)sc1-c1ccnc(C(C)(C)C(F)(F)F)c1 [Alpelisib] (partner 2 µM)
# Outline: (§1)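 Lung cancer cell lines in 1536-well plates got either a single drug or a fixed anchor-drug dose together with five library-drug doses (not always all listed) in √10 steps, by pin tool, on the day after seeding. Nuclei were counted after 5 days, and relative viability is the treated-to-vehicle ratio of nuclei counts. Values are medians of duplicate plates.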
# [2] = compound: O=C(O)c1ccc2c(c1)nc(Nc1cccc(Cl)c1)c1ccncc12 [Silmitasertib] + Nc1nc2[nH]cc(CCc3ccc(C(=O)N[C@@H](CCC(=O)O)C(=O)O)cc3)c2c(=O)[nH]1 [Pemetrexed] (partner 0.2 µM)
# Outline: as §1
# [3] = compound: O=C(O)c1ccc2c(c1)nc(Nc1cccc(Cl)c1)c1ccncc12 [Silmitasertib] + Nc1ncn([C@H]2C[C@H](O)[C@@H](CO)O2)c(=O)n1 [Decitabine] (partner 2 µM)
# Outline: as §1
# [4] = compound: O=C(O)c1ccc2c(c1)nc(Nc1cccc(Cl)c1)c1ccncc12 [Silmitasertib] + O=C(CCCCCCC(=O)Nc1ccccc1)NO [Vorinostat] (partner 1 µM)
# Outline: as §1
# [5] = compound: O=C(O)c1ccc2c(c1)nc(Nc1cccc(Cl)c1)c1ccncc12 [Silmitasertib] + O=C(c1cc(Cc2n[nH]c(=O)c3ccccc23)ccc1F)N1CCN(C(=O)C2CC2)CC1 [Olaparib] (partner 8 µM)
# Outline: as §1
cell line,measurement,setting,value
NCI-H1915,relative viability,[1]; first compound 0.04 µM,1.05
same,relative viability,[1]; first compound 1.265 µM,1.14
same,relative viability,[1]; first compound 4 µM,0.885
same,relative viability,[2]; first compound 0.04 µM,0.503
same,relative viability,[2]; first compound 1.265 µM,0.429
same,relative viability,[2]; first compound 4 µM,0.302
same,relative viability,[3]; first compound 0.04 µM,0.266
same,relative viability,[3]; first compound 1.265 µM,0.259
same,relative viability,[3]; first compound 4 µM,0.253
same,relative viability,[4]; first compound 0.04 µM,0.54
same,relative viability,[4]; first compound 1.265 µM,0.519
same,relative viability,[4]; first compound 4 µM,0.413
same,relative viability,[5]; first compound 0.04 µM,0.262
same,relative viability,[5]; first compound 1.265 µM,0.263
same,relative viability,[5]; first compound 4 µM,0.201
ChaGo-K-1,relative viability,[2]; first compound 0.04 µM,0.265
same,relative viability,[2]; first compound 0.4 µM,0.24
same,relative viability,[2]; first compound 1.265 µM,0.253
same,relative viability,[2]; first compound 4 µM,0.275
same,relative viability,[3]; first compound 0.04 µM,0.526
same,relative viability,[3]; first compound 0.4 µM,0.486
same,relative viability,[3]; first compound 1.265 µM,0.463
same,relative viability,[3]; first compound 4 µM,0.509
same,relative viability,[4]; first compound 0.04 µM,0.786
same,relative viability,[4]; first compound 0.4 µM,0.574
same,relative viability,[4]; first compound 1.265 µM,0.62
same,relative viability,[4]; first compound 4 µM,0.539
same,relative viability,[5]; first compound 0.04 µM,0.421
same,relative viability,[5]; first compound 0.4 µM,0.288
same,relative viability,[5]; first compound 1.265 µM,0.376
same,relative viability,[5]; first compound 4 µM,0.399
PC-14,relative viability,[1]; first compound 0.04 µM,0.968
same,relative viability,[1]; first compound 0.4 µM,0.942
same,relative viability,[1]; first compound 1.265 µM,0.924
same,relative viability,[1]; first compound 4 µM,0.939
same,relative viability,[2]; first compound 0.04 µM,0.134
same,relative viability,[2]; first compound 1.265 µM,0.122
same,relative viability,[2]; first compound 4 µM,0.113
same,relative viability,[3]; first compound 0.04 µM,0.265
same,relative viability,[3]; first compound 0.4 µM,0.214
same,relative viability,[3]; first compound 1.265 µM,0.271
same,relative viability,[3]; first compound 4 µM,0.192
same,relative viability,[4]; first compound 0.04 µM,0.893
same,relative viability,[4]; first compound 1.265 µM,0.734
same,relative viability,[4]; first compound 4 µM,0.482
same,relative viability,[5]; first compound 0.04 µM,0.346
same,relative viability,[5]; first compound 0.4 µM,0.163
same,relative viability,[5]; first compound 1.265 µM,0.34
same,relative viability,[5]; first compound 4 µM,0.272
SK-LU-1,relative viability,[1]; first compound 0.04 µM,1.09
same,relative viability,[1]; first compound 0.4 µM,0.836
same,relative viability,[1]; first compound 1.265 µM,0.413
same,relative viability,[1]; first compound 4 µM,0.27
same,relative viability,[2]; first compound 0.04 µM,0.984
same,relative viability,[2]; first compound 0.4 µM,0.885
same,relative viability,[2]; first compound 1.265 µM,0.771
same,relative viability,[2]; first compound 4 µM,0.351
same,relative viability,[3]; first compound 0.04 µM,0.708
same,relative viability,[3]; first compound 0.4 µM,0.622
same,relative viability,[3]; first compound 1.265 µM,0.297
same,relative viability,[3]; first compound 4 µM,0.428
same,relative viability,[4]; first compound 0.04 µM,0.851
same,relative viability,[4]; first compound 0.4 µM,0.673
same,relative viability,[4]; first compound 1.265 µM,0.587
same,relative viability,[4]; first compound 4 µM,0.35
same,relative viability,[5]; first compound 0.04 µM,0.45
same,relative viability,[5]; first compound 0.4 µM,0.267
same,relative viability,[5]; first compound 1.265 µM,0.308
same,relative viability,[5]; first compound 4 µM,0.225
NCI-H1703,relative viability,[1]; first compound 0.04 µM,0.334
same,relative viability,[1]; first compound 0.4 µM,0.312
same,relative viability,[1]; first compound 1.265 µM,0.392
same,relative viability,[1]; first compound 4 µM,0.452
same,relative viability,[5]; first compound 0.04 µM,0.513
same,relative viability,[5]; first compound 0.4 µM,0.368
same,relative viability,[5]; first compound 1.265 µM,0.541
same,relative viability,[5]; first compound 4 µM,0.573
NCI-H2228,relative viability,[1]; first compound 0.04 µM,0.785
same,relative viability,[1]; first compound 0.4 µM,0.821
same,relative viability,[1]; first compound 1.265 µM,0.821
same,relative viability,[1]; first compound 4 µM,0.808
same,relative viability,[2]; first compound 0.04 µM,0.331
same,relative viability,[2]; first compound 0.4 µM,0.337
same,relative viability,[2]; first compound 1.265 µM,0.333
same,relative viability,[2]; first compound 4 µM,0.307
same,relative viability,[4]; first compound 0.04 µM,0.848
same,relative viability,[4]; first compound 0.4 µM,0.513
same,relative viability,[4]; first compound 1.265 µM,0.779
same,relative viability,[4]; first compound 4 µM,0.875
same,relative viability,[5]; first compound 0.04 µM,0.713
same,relative viability,[5]; first compound 0.4 µM,0.208
same,relative viability,[5]; first compound 1.265 µM,0.474
same,relative viability,[5]; first compound 4 µM,0.668
NCI-H1650,relative viability,[2]; first compound 0.04 µM,0.339
same,relative viability,[2]; first compound 0.4 µM,0.454
same,relative viability,[2]; first compound 1.265 µM,0.387
same,relative viability,[2]; first compound 4 µM,0.319
same,relative viability,[3]; first compound 0.04 µM,0.525
same,relative viability,[3]; first compound 0.4 µM,0.419
same,relative viability,[3]; first compound 1.265 µM,0.315
same,relative viability,[3]; first compound 4 µM,0.254
same,relative viability,[4]; first compound 0.04 µM,0.577
same,relative viability,[4]; first compound 0.4 µM,0.386
same,relative viability,[4]; first compound 1.265 µM,0.421
same,relative viability,[4]; first compound 4 µM,0.288
same,relative viability,[5]; first compound 0.04 µM,0.833
same,relative viability,[5]; first compound 0.4 µM,0.798
same,relative viability,[5]; first compound 1.265 µM,0.646
same,relative viability,[5]; first compound 4 µM,0.493
NCI-H1792,relative viability,[1]; first compound 0.04 µM,0.671
same,relative viability,[1]; first compound 0.4 µM,0.595
same,relative viability,[1]; first compound 1.265 µM,0.683
same,relative viability,[1]; first compound 4 µM,0.727
same,relative viability,[2]; first compound 0.04 µM,0.772
same,relative viability,[2]; first compound 0.4 µM,0.78
same,relative viability,[2]; first compound 1.265 µM,0.78
same,relative viability,[2]; first compound 4 µM,0.331
same,relative viability,[3]; first compound 0.04 µM,0.6
same,relative viability,[3]; first compound 0.4 µM,0.492
same,relative viability,[3]; first compound 1.265 µM,0.529
same,relative viability,[3]; first compound 4 µM,0.515
same,relative viability,[5]; first compound 0.04 µM,0.308
same,relative viability,[5]; first compound 0.4 µM,0.421
same,relative viability,[5]; first compound 1.265 µM,0.431
same,relative viability,[5]; first compound 4 µM,0.281
NCI-H1563,relative viability,[1]; first compound 0.04 µM,0.922
same,relative viability,[1]; first compound 0.4 µM,0.734
same,relative viability,[1]; first compound 1.265 µM,0.923
same,relative viability,[1]; first compound 4 µM,0.92
same,relative viability,[2]; first compound 0.04 µM,0.871
same,relative viability,[2]; first compound 0.4 µM,0.844
same,relative viability,[2]; first compound 4 µM,0.693
IA-LM,relative viability,[1]; first compound 0.04 µM,0.717
same,relative viability,[1]; first compound 0.4 µM,0.901
same,relative viability,[1]; first compound 1.265 µM,0.942
same,relative viability,[1]; first compound 4 µM,0.84
same,relative viability,[4]; first compound 0.04 µM,1.05
same,relative viability,[4]; first compound 1.265 µM,1.21
same,relative viability,[4]; first compound 4 µM,0.538
same,relative viability,[5]; first compound 0.04 µM,0.899
same,relative viability,[5]; first compound 0.4 µM,0.561
same,relative viability,[5]; first compound 1.265 µM,0.791
same,relative viability,[5]; first compound 4 µM,0.614
CAL-12T,relative viability,[1]; first compound 0.04 µM,1.38
same,relative viability,[1]; first compound 0.4 µM,1.21
same,relative viability,[1]; first compound 1.265 µM,0.802
same,relative viability,[1]; first compound 4 µM,0.551
same,relative viability,[2]; first compound 0.04 µM,1.35
same,relative viability,[2]; first compound 0.4 µM,1.06
same,relative viability,[2]; first compound 1.265 µM,0.889
same,relative viability,[2]; first compound 4 µM,0.818
same,relative viability,[4]; first compound 0.04 µM,0.891
same,relative viability,[4]; first compound 0.4 µM,0.876
same,relative viability,[4]; first compound 1.265 µM,0.746
same,relative viability,[4]; first compound 4 µM,0.525
same,relative viability,[5]; first compound 0.04 µM,0.688
same,relative viability,[5]; first compound 0.4 µM,0.465
same,relative viability,[5]; first compound 1.265 µM,0.561
same,relative viability,[5]; first compound 4 µM,0.531
